The text below walks through data of patent US10844101B2, “Plant-derived elastin binding protein ligands and methods of using the same” (ELASTOGENESIS, LLC, priority 2005, dated 2020).

“Also recorded” adds a separate entry of the source.

The subject of assay [1] is human fibroblasts derived from normal human skin. Nature of the assay: [3H]-valine metabolic labeling and assay of newly deposited NaOH-insoluble elastin in fibroblast cultures. The class given is cell-based. To be noted: [3H]-valine labeling 3 days; for net deposition of insoluble elastin, maximum over control values: expressed per culture dish, dose dependent. The protocol: Fibroblasts were densely plated (50×10^5/dish) and grown to confluency in 10 cm cell culture dishes in quadruplicate. 20 μCi of [^3H]-valine was added to each dish along with fresh media. Cultures were then incubated for 72 hours and insoluble elastin was assessed separately in each culture.

A further assay deals with dermal fibroblasts. Nature of the assay: Cellular proliferation by [3H]-thymidine incorporation. To be noted: dermal fibroblasts vs control. Format: cell-based, human. The source says:
Results of this calculation, showing a more profound effect of EBPL-2 on net deposition of insoluble elastin per culture, led to the hypothesis that EBPL-2, similarly to VGVAPG (SEQ ID NO. 1), also stimulates cellular proliferation.
(Uptake of a labelled nucleoside into DNA is a usual measure of proliferation.)

The test system of the next assay is human dermal fibroblasts. Nature of the assay: Immunostaining with anti-tropoelastin antibody and morphometric analysis of elastic fiber deposition in 7-day dermal fibroblast cultures. Format: cell-based. To be noted: for elastogenesis level compared with VGVAPG or EBPL-1 treated cultures: 7 day-old primary cultures of dermal fibroblasts; for extracellular elastic fibers deposited (anti-tropoelastin immunostaining) / levels of intra- and extracellular tropoelastin (immunocytochemical staining): 7 days; for extracellular elastic fibers deposited (anti-tropoelastin immunostaining): fibroblasts, VGVAPG 5 μg/mL, EBPL-2 5 μg/mL, EBPL-3 10 μg/mL; for more elastic fibers / tropoelastin than control cultures, maximally produced (quantitative morphometric analysis of immuno-detectable tropoelastin): maximum effect vs control. The protocol:
In all experiments except those using CDBR, consecutive passages 3-7 were tested. Cells were incubated in the presence and absence of VGVAPG (SEQ ID NO. 1) (5 μg/mL), EBPL-2 (5 μg/mL) and EBPL-3 (10 μg/mL). In experiments using CDRB cell passage 3 was tested, cells were densely plated (50×10^6 cells/dish) to rich immediate confluency and than cultured for 7 days in the presence and absence of 25 μg/ml CDBR (added at day 1 and 3).

For assay [2], the system named is elastin gene in adult dermal fibroblasts. Nature of the assay: RT-PCR with specific tropoelastin probe (transcription of the elastin gene). Format: cell-based, human. To be noted: serum-free medium and 10% FBS. The text has this:
Using a BLAST search through the National Library of Medicine website, we identified the IGVAPG (SEQ ID NO. 13) domain in the amino acid sequence for a transcription factor of Japanese rice, which also reflects the common EBP-binding GXXPG (SEQ ID NO. 2) motif found in elastin and laminin. We used RT-PCR to measure transcription of the elastin gene by peptides of the invention.

Another assay concerns human skin explants. In words: Organ cultures of human skin explants stained with Movat pentachrome stain. The class given is cell-based.
The mark [3] stands for this setting: adult dermal fibroblasts, 7 day old cultures.
The mark [4] stands for this setting: organ cultures of human skin biopsies.

“IGVAPG (Synthetic derived from Oryza sativa) [EBPL-2]”: in assay [1] (10 μg/mL, normalized per DNA content), the “more radioactively labeled insoluble elastin as compared to non-treated fibroblasts” value is 36%. The “net deposition of insoluble elastin, maximum over control values” in assay [1] stood at 175%. Also, the “incorporation of [3H]-thymidine (cellular proliferation)” value in the assay with dermal fibroblasts is “higher than control incorporation of [^3H]-thymidine”. In the assay with human dermal fibroblasts, the “elastogenesis level compared with VGVAPG or EBPL-1 treated cultures” value is listed as “capable of inducing elastogenesis to the levels that exceed those obtained in cultures treated with VGVAPG; also recorded: higher net deposition of tropoelastin than their counterparts cultured with VGVAPG” and the “extracellular elastic fibers deposited (anti-tropoelastin immunostaining)” value (“extracellular elastic fibers deposited” below) is listed as “deposition of thick extracellular elastic fibers”. Also, the “more elastic fibers / tropoelastin than control cultures, maximally produced (quantitative morphometric analysis of immuno-detectable tropoelastin)” value in the assay on human dermal fibroblasts (setting [3]) was 710%. In addition, the “more tropoelastin than maximum ProK-60-induced levels” value with human dermal fibroblasts (adult dermal fibroblasts, 7 day old cultures, maximum vs maximum ProK-60) is 141%. For the same substance, the “levels of intra- and extracellular tropoelastin (immunocytochemical staining)” value with human dermal fibroblasts (adult dermal fibroblasts) was “enhanced levels of intra- and extracellular tropoelastin”. Also, the “transcription of the elastin gene” value in assay [2] is listed as “increased transcription of the elastin gene”. Also, in the assay with human skin explants (10-day old organ cultures, person), the “elastic fibers (black stain) in skin explant organ cultures” value is listed as “contained more elastic fibers”. Further, in the assay on human skin explants (setting [4]), the “dilatation of existing dermal capillaries” value was “stimulates dilatation of existing capillaries” and the “production of new elastic fibers by pericytes” value is “stimulated production of new elastic fibers by pericytes”.

On to “IGVAPGAAAAAIGVAPG (Synthetic derived from Oryza sativa) [EBPL-3]”, for which, in the assay with human dermal fibroblasts, the “elastogenesis level compared with VGVAPG or EBPL-1 treated cultures” value is on record as “capable of inducing elastogenesis to the levels that exceed those obtained in cultures treated with VGVAPG” and the “extracellular elastic fibers deposited” value is “deposition of thick extracellular elastic fibers”.

“VGVAPG (Synthetic derived from Oryza sativa) [elastin receptor ligand hexapeptide obtained from Sigma, reference compound]”: the “net deposition of insoluble elastin, maximum over control values” in assay [1] was 109%. Also, the “incorporation of [3H]-thymidine (cellular proliferation)” value in the assay on dermal fibroblasts is “higher than control incorporation of [^3H]-thymidine”. Also, in the assay on human dermal fibroblasts, the “extracellular elastic fibers deposited” value is recorded as “very thin extracellular elastic fibers at levels greater than the control levels”. In addition, the “more elastic fibers / tropoelastin than control cultures, maximally produced (quantitative morphometric analysis of immuno-detectable tropoelastin)” value in the assay on human dermal fibroblasts (setting [3]) stood at 457%. The “levels of intra- and extracellular tropoelastin (immunocytochemical staining)” value with human dermal fibroblasts (adult dermal fibroblasts) was “enhanced levels of intra- and extracellular tropoelastin”. In addition, in assay [2], the “transcription of the elastin gene” value is recorded as “stimulated transcription”.

As for “VGVAPGAAAAAVGVAPG (Synthetic derived from Oryza sativa) [EBPL-1]”, the “extracellular elastic fibers deposited” value with human dermal fibroblasts is given as “very thin extracellular elastic fibers at levels greater than the control levels”.
